# Patent publication US10632101B2, “Methods and compositions for supporting endogenous systems related to life span” (USANA Health Sciences, Inc., priority 2016, dated 2020)
# Key:
# [1] = test system: Nrf2; test: Nrf2 signaling fluorescent reporter assay in human retinal epithelial cell line; format: cell-based
# Experimental: The assays were carried out with a fluorescent reporter assay that utilized a human retinal epithelial cell line. The assays also included validation by RT-PCR (reverse transcription polymerase chain reaction) of Nrf2 target genes. The human retinal epithelial cell line was purchased from ATCC (American Type Cell Culture, Manassas, Va.) and was configured to function as a fluorescent reporter assay. Test solutions of each of the alpha lipoic acid, resveratrol, curcumin, EGCG, Olivol®, rutin, quercetin, and hesperetin were prepared by serial dilution. Control solutions were also prepared. Positive control solutions of a known Nrf2 agonist, L-sulphoraphane was also prepared. Each test solution was then assayed for Nrf2 signaling activity using the fluorescent reporter assay and compared to control assays. The positive control solutions were also tested.
# [2] = test system: human NF-κB; test: NF-κB reporter cell assay, antagonist mode; format: cell-based
# [3] = biological target: T1, human PPARδ (Homo sapiens, UniProt Q03181); test: PPARδ reporter cell assay, agonist mode; format: cell-based
# T1 construct: expressed in transfected cells; host or cells: CHO
# T1 sequence (Q03181 211-439 limits assumed): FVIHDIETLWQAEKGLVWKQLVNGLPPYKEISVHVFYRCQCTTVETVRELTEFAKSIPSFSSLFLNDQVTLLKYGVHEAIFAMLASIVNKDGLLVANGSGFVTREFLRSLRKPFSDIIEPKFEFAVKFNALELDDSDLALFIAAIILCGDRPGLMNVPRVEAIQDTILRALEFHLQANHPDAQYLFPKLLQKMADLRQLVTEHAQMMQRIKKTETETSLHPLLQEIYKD
# [4] = biological target: T2, human PPARγ (Homo sapiens, UniProt P37231); test: PPARγ reporter cell assay, agonist mode; format: cell-based
# T2 construct: expressed in transfected cells; host or cells: CHO
# T2 sequence (P37231 238-503 limits assumed): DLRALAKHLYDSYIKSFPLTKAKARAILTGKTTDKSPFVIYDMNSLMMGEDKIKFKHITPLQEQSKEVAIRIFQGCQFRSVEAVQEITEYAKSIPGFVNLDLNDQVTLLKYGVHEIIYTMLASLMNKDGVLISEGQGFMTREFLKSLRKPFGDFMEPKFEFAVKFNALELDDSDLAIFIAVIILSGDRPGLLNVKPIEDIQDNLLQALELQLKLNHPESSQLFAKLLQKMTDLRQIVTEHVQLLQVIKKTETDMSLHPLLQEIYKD
# [5] = biological target: T3, human PPARα (Homo sapiens, UniProt Q07869); test: PPARα reporter cell assay, agonist mode; format: cell-based
# T3 construct: expressed in transfected cells; host or cells: CHO
# T3 sequence (Q07869 239-466 limits assumed): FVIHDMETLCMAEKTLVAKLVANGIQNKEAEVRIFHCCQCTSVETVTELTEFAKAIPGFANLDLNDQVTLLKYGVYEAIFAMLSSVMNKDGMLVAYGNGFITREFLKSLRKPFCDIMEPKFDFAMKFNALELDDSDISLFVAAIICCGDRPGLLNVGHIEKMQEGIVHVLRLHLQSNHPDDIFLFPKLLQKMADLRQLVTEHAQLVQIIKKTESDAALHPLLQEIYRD
# [6] = test system: NF-κB reporter cells (HEK293); test: Live cell multiplex read-out in the NF-κB antagonist assay; format: cell-based, human
# Experimental: Various receptor assays were carried out for test compounds corresponding to ingredients of the nutritional supplement composition. In general, the receptor assays utilized reporter cells that either expressed a native receptor or a receptor hybrid. The receptor hybrids were engineered so that the native N-terminal DNA binding domain (DBD) was replaced with a yeast Gal4 DBD. The reporter cells expressed a hybrid receptor comprising either the native receptor (Nrf2 and NF-κB) or the N-terminal Gal4 DNA binding domain fused to the ligand binding domain of the specific human nuclear receptor (PPARα, PPARδ, and PPARγ). The reporter gene (e.g., firefly luciferase) was functionally linked to either upstream receptor-specific response elements (GRE) or the Gal4 upstream activation sequence (UAS). A summary of the receptors, the reporter cells used for each particular receptor assay, and the reference compounds used to confirm performance of the receptor assays are indicated below in Table 4.
# A vehicle control was prepared. […] After incubation, fluorescence was measured to determine a relative number of live cells per test well.
# [7] = test system: C. elegans strain CB5586; test: Phenotypic lifespan screening in C. elegans; format: in vivo; details: for effect on chronological lifespan: 0.1 and 10 mg/ml tested
# Experimental: Dilutions of the test formulations were applied to individual populations of C. elegans and the lifespan of each population was monitored. Any changes in the lifespan of an individual population compared to a control population were recorded and correlated to the respective test formulation (N356 or N357) and the respective dilution (0.1 mg/ml, 1 mg/ml, and 10 mg/ml).
# The N256 and N357 formulations were each prepared as individual 100 mg/ml stock solutions in dimethyl sulfoxide (DMSO). Serial dilutions of each stock solution were then prepared at 0.1 mg/ml, 1 mg/ml, and 10 mg/ml in DMSO. Control solutions of DMSO only were also prepared. Synchronous aged adult populations of C. elegans strain CB5586 worms were prepared. The CB5586 strain comprises a pharyngeal GFP (green fluorescent protein) tag and a mutation in the bus-5 gene. The pharyngeal GFP tag allows for fluorescent images of the worm populations to be taken. The mutation in the bus-5 gene causes the loss of normal cuticle antigens that permits the cuticle of the worms to become permeable to the test formulations and allow direct uptake of the test formulations to avoid interaction of the test formulations with protective mechanisms of the gut channel. Each serial dilution of each test formulation was added to a separate population of the prepared worms. The control solutions were also added to separate populations of the prepared worms. The populations of the prepared worms were then maintained on standard nematode growth media (NGM) agar plates at 20° C. with sufficient food (Escherichia coli strain OP-50).
# Each worm population was then monitored by fluorescent imaging to determine the number of living and dead worms as a function of time. The fluorescent imaging was analyzed by software that recognized and counted worms based on their fluorescent intensity compared to background fluorescence. […] The ability to distinguish between living and dead worms allowed the number of living worms and a cumulative number of dead worms to be monitored against time. Worm populations from a selection of fluorescent images were manually checked to verify that the software had accurately counted the number of living and dead worms.
# The counts of the living and dead worms as a function of time were then analyzed for each of the worm populations and used to prepare Kaplan-Meier survival curves and associated statistics for each of the worm populations. […] The median lifespan is shown as the length of time after the last mitotic division that 50% of the test population remains viable when compared to the control population. The maximum lifespan extension is shown as the length of time after the last mitotic division that 5% of the test population remains viable when compared to the control population.
# The counts of the living and dead worms as a function of time and the Kaplan-Meier survival curves and the associated statistics were then analyzed for each of the worm populations. The analysis included determining mean and median lifespan. The analysis included a non-parametric test, the Log-Rank test, which compares two survival functions for the overall lifespan assay and provides a reliable p-value summarizing the whole experiment. The analysis also included Fisher's Exact Test that calculated the significance of survival function comparisons at multiple specific time points throughout the experiment, rather than for the overall lifespan. The results of the analysis are shown below in Tables 10-17.
# Phenotypic screening was carried out as described in EXAMPLE 2 for various individual compounds of the N357 formulation. […] Alpha lipoic acid was sourced from PureBulk™ USA as a racemic mix of R and S stereoisomers and was assigned a sample number of N198. Hesperidin was sourced from Sigma Aldrich at ≥80% purity and was assigned a sample number of N347. […]
# [8] = biological target: T4, mTOR (Homo sapiens, UniProt P42345); details: cited from earlier work
# T4 construct: host or cells: isolated cells in culture (not specified)
structure (smiles),measurement,setting,value
"O=C(O)CCCCC1CCSS1 (racemic) [Alpha lipoic acid, alpha lipoic acid]",activation of Nrf2,[1]; 100 and 30 μM,demonstrated activation of Nrf2
same,NF-κB % Inhibition,[2]; 4.25 μg/ml,−0.70%
same,PPARδ Fold-Activation,[3]; 1.42 μg/ml,1.5
same,PPARδ Fold-Activation,[3]; 4.25 μg/ml,1.1
same,PPARδ Fold-Activation,[3]; 12.7 μg/ml,0.80
same,PPARδ Fold-Activation,[3]; 38.23 μg/ml,0.52
same,PPARδ Fold-Activation,[3]; 114.70 μg/ml,0.29
same,PPARγ Fold-Activation,[4]; 1.42 μg/ml,1.1
same,PPARγ Fold-Activation,[4]; 4.25 μg/ml,1.1
same,PPARγ Fold-Activation,[4]; 12.7 μg/ml,1.3
same,PPARγ Fold-Activation,[4]; 38.23 μg/ml,1.4
same,PPARγ Fold-Activation,[4]; 114.70 μg/ml,3.4
same,PPARα Fold-Activation,[5]; 1.42 μg/ml,1.4
same,PPARα Fold-Activation,[5]; 4.25 μg/ml,1.3
same,PPARα Fold-Activation,[5]; 12.7 μg/ml,1.2
same,PPARα Fold-Activation,[5]; 38.23 μg/ml,1.5
same,PPARα Fold-Activation,[5]; 114.70 μg/ml,2.3
same,NF-κB % Live Cell,[6]; 1.42 μg/ml,100%
same,effect on chronological lifespan,[7],significant positive and dose-dependent increase of chronological lifespan
"Oc1ccc(/C=C/c2cc(O)cc(O)c2)cc1 [Resveratrol, 3,5,4′-trihydroxy-trans-stilbene]",activation of Nrf2,[1]; 10 μM and 1,demonstrated activation of Nrf2
same,concentration with more activation of Nrf2,[1]; of 10 μM and 1,10 µM
same,NF-κB % Inhibition,[2]; 2.54 μg/ml,−50%
same,NF-κB % Live Cell,[6]; 0.28 μg/ml (resveratrol series),100%
same,NF-κB % Live Cell,[6]; 0.85 μg/ml,100%
same,mTOR inhibition,[8]; applied to isolated cells in culture,inhibit mTOR
same,"mTOR inhibition, mitophagy and mitochondrial turnover",[8],"inhibit mTOR, up-regulate mitophagy, and increase the rate of mitochondrial turnover"
same,Statistically Significant Result,[7]; 0.1 mg/ml compared to DMSO control,No statistical difference
same,effect on chronological lifespan,[7],significant positive and dose-dependent increase of chronological lifespan
